Results from the NIST ThermoML archive (doi:10.1016/j.jct.2012.02.007).
± gives the expanded uncertainty stated by the source.

Tests used:
[1] = osmotic coefficient (dimensionless); mn = molality of the nth substance listed, in mol/kg; conditions: 323.15 K, Liquid, Vapor Pressure Osmometer
[2] = mn = molality of the nth substance listed, in mol/kg; conditions: 101.3 kPa, Liquid; for speed of sound: Sing-around technique in a fixed-path interferometer; for mass density: Vibrating tube method

CCCCn1cc[n+](C)c1.N#CN=C=[N-] [1-butyl-3-methylimidazolium dicyanamide] + CCCO
[1]
Conditions	osmotic coefficient
m1 = 0.0543	0.973 ± 0.012
m1 = 0.0899	0.898 ± 0.013
m1 = 0.1032	0.871 ± 0.013
m1 = 0.2057	0.816 ± 0.014
m1 = 0.3018	0.78 ± 0.014
m1 = 0.4097	0.748 ± 0.015
m1 = 0.5035	0.737 ± 0.015
m1 = 0.8276	0.714 ± 0.016
m1 = 1.24	0.691 ± 0.016
m1 = 1.64	0.668 ± 0.017
m1 = 2.049	0.646 ± 0.017
m1 = 2.45	0.634 ± 0.018
m1 = 2.837	0.616 ± 0.018
m1 = 3.324	0.599 ± 0.019

[2]
Conditions	mass density, 293.15 K [kg/m3]	mass density, 308.15 K [kg/m3]	mass density, 323.15 K [kg/m3]	speed of sound, 293.15 K [m/s]	speed of sound, 308.15 K [m/s]	speed of sound, 323.15 K [m/s]
m1 = 0.0646	807.07 ± 0.12	795.05 ± 0.12	782.64 ± 0.12	1229.5 ± 0.8	1178.7 ± 0.8	1128.5 ± 0.8
m1 = 0.1004	808.7 ± 0.12	796.71 ± 0.12	784.35 ± 0.12	1232.4 ± 0.8	1181.7 ± 0.8	1131.7 ± 0.8
m1 = 0.154	811.09 ± 0.12	799.15 ± 0.12	786.83 ± 0.12	1236.7 ± 0.9	1186.2 ± 0.8	1136.4 ± 0.8
m1 = 0.2041	813.27 ± 0.12	801.36 ± 0.12	789.09 ± 0.12	1240.4 ± 0.9	1190 ± 0.8	1140.4 ± 0.8
m1 = 0.2521	815.21 ± 0.12	803.31 ± 0.12	791.08 ± 0.12	1243.9 ± 0.9	1193.4 ± 0.9	1143.8 ± 0.8
m1 = 0.5071	825.41 ± 0.12	813.67 ± 0.12	801.63 ± 0.13	1261.1 ± 0.9	1211.6 ± 0.9	1162.8 ± 0.9
m1 = 0.7606	834.72 ± 0.12	823.09 ± 0.12	811.21 ± 0.13	1277.2 ± 0.9	1228.3 ± 0.9	1180.1 ± 0.9
m1 = 1.012	843.22 ± 0.12	831.69 ± 0.13	819.94 ± 0.13	1292.2 ± 1	1243.8 ± 0.9	1196.2 ± 0.9
m1 = 1.263	851.11 ± 0.13	839.67 ± 0.13	828.03 ± 0.13	1306.2 ± 1	1258.2 ± 1	1211.2 ± 1
m1 = 1.512	858.43 ± 0.13	847.07 ± 0.14	835.54 ± 0.14	1319.4 ± 1	1271.9 ± 1	1225.3 ± 1
m1 = 1.765	865.25 ± 0.14	853.97 ± 0.14	842.54 ± 0.15	1331.8 ± 1.1	1284.7 ± 1	1238.6 ± 1
m1 = 2.017	871.65 ± 0.15	860.45 ± 0.15	849.11 ± 0.15	1343.6 ± 1.1	1297 ± 1.1	1251.3 ± 1.1
m1 = 2.52	883.38 ± 0.16	872.29 ± 0.17	861.11 ± 0.17	1365.8 ± 1.1	1319.7 ± 1.1	1274.6 ± 1.1
m1 = 2.826	889.83 ± 0.17	878.84 ± 0.18	867.75 ± 0.18	1377.8 ± 1.2	1332.3 ± 1.2	1287.8 ± 1.2
m1 = 3.488	902.23 ± 0.2	891.37 ± 0.2	880.45 ± 0.2	1401.8 ± 1.3	1357.1 ± 1.2	1313.3 ± 1.2

CCCCn1cc[n+](C)c1.N#CN=C=[N-] [1-butyl-3-methylimidazolium dicyanamide] + CC(C)O
[1]
Conditions	osmotic coefficient
m1 = 0.0572	0.973 ± 0.012
m1 = 0.0884	0.925 ± 0.012
m1 = 0.1125	0.905 ± 0.012
m1 = 0.2169	0.838 ± 0.013
m1 = 0.3275	0.795 ± 0.014
m1 = 0.4213	0.77 ± 0.015
m1 = 0.5065	0.757 ± 0.015
m1 = 0.8172	0.712 ± 0.016
m1 = 1.153	0.682 ± 0.016
m1 = 1.6	0.665 ± 0.017
m1 = 2.049	0.641 ± 0.017
m1 = 2.416	0.619 ± 0.018
m1 = 2.863	0.592 ± 0.019
m1 = 3.314	0.565 ± 0.02

[2]
Conditions	mass density, 293.15 K [kg/m3]	mass density, 308.15 K [kg/m3]	mass density, 323.15 K [kg/m3]	speed of sound, 293.15 K [m/s]	speed of sound, 308.15 K [m/s]	speed of sound, 323.15 K [m/s]
m1 = 0.0497	788.07 ± 0.13	775.35 ± 0.13	761.85 ± 0.13	1163.1 ± 0.8	1110.6 ± 0.8	1057.6 ± 0.8
m1 = 0.1012	790.54 ± 0.13	777.9 ± 0.13	764.5 ± 0.1	1167.4 ± 0.9	1115.4 ± 0.8	1062.8 ± 0.8
m1 = 0.1541	793.01 ± 0.13	780.44 ± 0.13	767.13 ± 0.13	1171.9 ± 0.9	1120.2 ± 0.8	1067.8 ± 0.8
m1 = 0.2003	795.12 ± 0.13	782.61 ± 0.13	769.37 ± 0.13	1175.6 ± 0.9	1124.1 ± 0.9	1072 ± 0.8
m1 = 0.2521	797.4 ± 0.13	784.94 ± 0.13	771.79 ± 0.13	1179.7 ± 0.9	1128.4 ± 0.9	1076.6 ± 0.9
m1 = 0.5105	808.27 ± 0.13	796.04 ± 0.13	783.22 ± 0.14	1199.3 ± 0.9	1148.9 ± 0.9	1098.1 ± 0.9
m1 = 0.7616	817.89 ± 0.13	805.84 ± 0.14	793.27 ± 0.14	1216.7 ± 0.9	1167 ± 0.9	1117.1 ± 0.9
m1 = 1.016	826.92 ± 0.14	815.02 ± 0.14	802.67 ± 0.14	1233.3 ± 1	1184.4 ± 1	1135.3 ± 1
m1 = 1.264	835.03 ± 0.14	823.26 ± 0.15	811.1 ± 0.2	1248.4 ± 1	1200 ± 1	1151.6 ± 1
m1 = 1.523	843.01 ± 0.15	831.36 ± 0.15	819.36 ± 0.15	1263.4 ± 1.1	1215.6 ± 1	1167.9 ± 1
m1 = 1.784	850.52 ± 0.16	838.97 ± 0.16	827.12 ± 0.16	1278 ± 1.1	1230.6 ± 1.1	1183.3 ± 1.1
m1 = 2.022	856.61 ± 0.16	845.16 ± 0.17	833.43 ± 0.17	1289.6 ± 1.1	1242.8 ± 1.1	1196.1 ± 1.1
m1 = 2.519	868.38 ± 0.18	857.09 ± 0.18	845.59 ± 0.19	1312.7 ± 1.2	1266.6 ± 1.2	1220.9 ± 1.2
m1 = 3.014	878.91 ± 0.2	867.77 ± 0.2	856.45 ± 0.2	1333.7 ± 1.2	1288.3 ± 1.2	1243.4 ± 1.2
m1 = 3.553	889.91 ± 0.22	878.92 ± 0.22	867.79 ± 0.22	1356 ± 1	1311.2 ± 1.3	1267 ± 1.3
